Experimental data published in ChEMBL document CHEMBL1138233, “New iantherans from the marine sponge Ianthella quadrangulata: novel agonists of the P2Y(11) receptor” (J Med Chem, 2007).
Calls of active or inactive are those of the source. The calls are words filed in the database; no cut-off is given here.

Key:
[1] = target: T1, P2Y purinoceptor 11 (Homo sapiens) (UniProt Q96G91); assay: Agonist activity at P2Y11 receptor expressed in 1321N1 cells assessed as cytosolic calcium level at 10 uM relative to GTPgammaS control; type: functional, cell-based
T1 sequence (whole entry): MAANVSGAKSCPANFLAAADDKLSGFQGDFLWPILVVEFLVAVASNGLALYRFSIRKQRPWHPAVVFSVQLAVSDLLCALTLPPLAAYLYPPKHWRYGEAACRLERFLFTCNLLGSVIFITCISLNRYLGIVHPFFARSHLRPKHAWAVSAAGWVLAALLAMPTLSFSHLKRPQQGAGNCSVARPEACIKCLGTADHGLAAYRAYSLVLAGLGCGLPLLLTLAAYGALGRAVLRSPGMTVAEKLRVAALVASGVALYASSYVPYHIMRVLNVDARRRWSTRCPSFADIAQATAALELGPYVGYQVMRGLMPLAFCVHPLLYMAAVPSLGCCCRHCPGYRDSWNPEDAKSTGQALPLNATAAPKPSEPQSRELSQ

[2] = target: P2Y purinoceptor 1 (Homo sapiens) (UniProt P47900); assay: Agonist activity at P2Y1 receptor expressed in 1321N1 cells assessed as cytosolic calcium level at 10 uM relative to GTPgammaS control; type: functional, cell-based
[3] = Toxicity against 1321N1 cells expressing P2Y1 receptor at 1 to 10 uM; type: cell-based; conditions: human, 1321-n1, 10 µM
P2Y purinoceptor 2 [4] = target: T2, P2Y purinoceptor 2 (Homo sapiens, UniProt P41231); assay: Agonist activity at P2Y2 receptor expressed in 1321N1 cells assessed as cytosolic calcium level at 10 uM relative to GTPgammaS control; type: functional, cell-based
[5] = Toxicity against 1321N1 cells expressing P2Y11 receptor at 1 to 10 uM; type: cell-based; conditions: human, 1321-n1, 10 µM
[6] = Toxicity against 1321N1 cells expressing P2Y2 receptor at 1 to 10 uM; type: cell-based; conditions: human, 1321-n1, 10 µM
[7] = target: T1, P2Y purinoceptor 11 (Homo sapiens); assay: Agonist activity at P2Y11 receptor expressed in 1321N1 cells assessed as cytosolic calcium level at 1 uM relative to GTPgammaS control; type: functional, cell-based
[8] = target: T1, P2Y purinoceptor 11 (Homo sapiens); assay: Agonist activity at P2Y11 receptor expressed in 1321N1 cells assessed as calcium mobilization in presence of 10 uM NF340 at 3.6 uM; type: functional, cell-based
P2Y purinoceptor 11 = target: T3, P2Y purinoceptor 11 (Homo sapiens, UniProt Q96G91); assay: Agonist activity at P2Y11 receptor expressed in 1321N1 cells assessed as cytosolic calcium level; type: functional, cell-based
T3 sequence (Q96G91 whole entry): T1 sequence (whole entry)

[9] = target: T1, P2Y purinoceptor 11 (Homo sapiens); assay: Agonist activity at P2Y11 receptor expressed in 1321N1 cells assessed as calcium mobilization in presence of 10 uM NF340 at 1 uM; type: functional, cell-based
[10] = target: P2Y purinoceptor 1 (Homo sapiens) (UniProt P47900); assay: Agonist activity at P2Y1 receptor expressed in 1321N1 cells assessed as cytosolic calcium level at 1 uM relative to GTPgammaS control; type: functional, cell-based
P2Y purinoceptor 2 [11] = target: T2, P2Y purinoceptor 2; assay: Agonist activity at P2Y2 receptor expressed in 1321N1 cells assessed as cytosolic calcium level at 1 uM relative to GTPgammaS control; type: functional, cell-based
P2Y purinoceptor 2 [12] = target: T2, P2Y purinoceptor 2; assay: Agonist activity at P2Y2 receptor expressed in 1321N1 cells assessed as cytosolic calcium level; type: functional, cell-based

Sequence of P2Y purinoceptor 1 (Homo sapiens) (P47900 whole entry): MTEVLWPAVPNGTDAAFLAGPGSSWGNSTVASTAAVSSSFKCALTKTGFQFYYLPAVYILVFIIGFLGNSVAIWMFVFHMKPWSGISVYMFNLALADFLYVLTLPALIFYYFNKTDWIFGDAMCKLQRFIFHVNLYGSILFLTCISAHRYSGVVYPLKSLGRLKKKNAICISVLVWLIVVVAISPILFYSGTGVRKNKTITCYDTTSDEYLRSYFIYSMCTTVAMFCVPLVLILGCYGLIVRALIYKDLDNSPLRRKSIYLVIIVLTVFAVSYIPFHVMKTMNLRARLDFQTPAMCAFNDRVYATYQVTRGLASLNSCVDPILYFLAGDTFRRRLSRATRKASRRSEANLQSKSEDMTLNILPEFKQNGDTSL
T2 sequence (P41231 whole entry): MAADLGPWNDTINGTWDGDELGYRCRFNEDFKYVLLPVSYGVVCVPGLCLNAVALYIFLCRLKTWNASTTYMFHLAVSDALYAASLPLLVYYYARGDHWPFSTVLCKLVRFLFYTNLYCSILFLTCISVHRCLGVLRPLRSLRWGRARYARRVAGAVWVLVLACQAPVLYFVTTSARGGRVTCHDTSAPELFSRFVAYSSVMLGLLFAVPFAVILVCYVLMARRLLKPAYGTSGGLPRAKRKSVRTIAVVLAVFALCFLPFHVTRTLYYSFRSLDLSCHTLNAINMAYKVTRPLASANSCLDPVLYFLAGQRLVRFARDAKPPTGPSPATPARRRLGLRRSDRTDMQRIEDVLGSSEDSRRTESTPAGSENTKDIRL

| Compound | Activity [1] | Activity [2] | Activity [3] | Activity (P2Y purinoceptor 2 [4]) | Activity [5] | Activity [6] | Activity [7] | Activity [8] | EC50 (P2Y purinoceptor 11) | Activity [9] | Activity [10] | Activity (P2Y purinoceptor 2 [11]) | EC50 (P2Y purinoceptor 2 [12]) |
| --- | --- | --- | --- | --- | --- | --- | --- | --- | --- | --- | --- | --- | --- |
| COc1c(Br)cc(CC(=O)O)cc1Br | < 37.5% | < 37.5% | Non-toxic | < 37.5% | Non-toxic | Non-toxic | – | – | – | – | – | – | – |
| O=S(=O)([O-])OC(=C\c1cc(Br)c2oc(-c3ccc(O)c(Br)c3)cc2c1)/C(=C/c1cc(Br)c2oc(-c3ccc(O)c(Br)c3)cc2c1)OS(=O)(=O)[O-].[Na+].[Na+] [ISO-IANTHERAN A] | Active | Active | Non-toxic | Active | Non-toxic | Non-toxic | Active | inactive | 1290 nM | – | – | – | – |
| Nc1ncnc2c1ncn2[C@@H]1O[C@H](CO[P@](=O)(O)O[P@](=O)(O)O[P@@](=O)(O)S)[C@@H](O)[C@H]1O | – | – | – | – | – | – | – | – | 63.1 nM | – | – | – | – |
| O=C(O)c1c(-c2ccc(O)c(Br)c2)oc2c(Br)cc(/C=C(OS(=O)(=O)[O-])/C(=C/c3cc(Br)c4oc(-c5ccc(O)c(Br)c5)cc4c3)OS(=O)(=O)[O-])cc12.[Na+].[Na+] [8-CARBOXY-ISO-IANTHERAN A] | 114% | < 5% | Non-toxic | < 5% | Non-toxic | Non-toxic | 94.6% | – | 479 nM | inactive | < 5% | < 5% | – |
| O=c1ccn([C@@H]2O[C@H](COP(=O)(O)OP(=O)(O)OP(=O)(O)O)[C@@H](O)[C@H]2O)c(=O)[nH]1 [URIDINE TRIPHOSPHATE] | – | – | – | – | – | – | – | – | – | – | – | – | 110 nM |
| COc1c(Br)cc(/C=C(\OS(=O)(=O)[O-])C(=O)O)cc1Br.[Na+] | < 37.5% | < 37.5% | Non-toxic | < 37.5% | Non-toxic | Non-toxic | – | – | – | – | – | – | – |
